Measurements published in patent publication US8058460B2, “Near infrared fluorophore for the selective labelling of membranes in cells” (Universität Heidelberg, priority 2006, dated 2011).

Tests used:
HeLa cell = assay: Colocalization experiments with wheat-germ agglutinin (WGA); type: cell-based; details: in vivo stains with KAYA1 compared with WGA in fixed cells (FIGS. 2a to 2c, 3a to 3c)
Text: Wheat-germ agglutinin (WGA) is a glycoprotein (lectin) that recognizes and binds to specific glycoconjugates such as N-acetylneuraminic acid, N-acetyl glucosamine, membrane glycoprotein, chitin, cartilage, glucosamineglycans, glycolipids, and glycoproteins with sialic acid residues (cf. Monsigny M., Roche A-C., Sene C., raget-Dana R., Delmotte F., Sugar-Lectin Interactions: How does Wheat-germ Agglutinin bind Sialoglycoconjugates?, Eur. J. Biochem., 1980, (104), 147-153; Wright C S., Crystal structure of a wheat germ agglutinin/glycophorin-sialoglycopeptide receptor complex. Structural Basis for cooperative lectin-cell binding, J. Biol. Chem., 1992, 267(20), 14345-52). WGA is commonly used to stain the golgi apparatus, nuclear envelop and plasma membrane of fixed cells.
For the colocalization experiments the cells are stained with KAYA1 at the same conditions as described for in vivo labelling. Then the cells are fixed with HEPEM buffer and the membranes of the cells are permeabilized 30 min at 4° C. with 50 ml 1×PBS containing 50 mg Saponin. After washing the cells with 1×PBS for 5 min at room temperature the cells are incubated 15 min with 50 μg/ml WGA at 37° C. Finally the cells are washed with 1×PBS and covered with Vectashield, prior to analysis.

[1] = system: membranes of live HeLa cells; assay: In vivo labelling of live cells, confocal laser scanning microscopy; type: cell-based; details: live HeLa cells after incubation with KAYA1 labelling solution (FIGS. 2a to 2c)
Description: A protocol for the labelling of live cells was optimized for cultured HeLa cells (epithelial, cervical carcinoma), for LnCAP (Prostatacancer, fibroblasts) and VH7 (foreskin fibroblasts) that are adhering to coverslips. Cells are cultured on coverslips in DEMEM (VH7, HeLa) RPMI (LnCAP) with 10% foetal calf serum, 1 mM glutamine and antibiotics and incubated at 37° C. in an atmosphere of 5% CO2. A 5 μM solution of KAYA1 is prepared in a HEPES-Glucose buffer medium containing 115 mM NaCl, 1.2 mM CaCl2, 1.2 mM MgCl2, 1.2 mM K2HPO4, 20 mM HEPES, 10 mM Glucose, pH 7.4. After removing the cell medium the cells are incubated with the labeling solution for 1 minute at 37° C. The labeling solution is removed, the cells washed in 1×PBS and incubated with the cell medium, prior to analysis.
(§1) The System used was a Leica DM IRBE (TSC/SP2) microscope operating with a helium/neon laser. Detection of all probes was visualized with the laser emission line 633 nm, the detection window was realized between 650 nm-800 nm.
CLSM allows the blur from out of focus regions of the fluorescent specimen to be blocked, resulting in crisp, sharp images from well defined planes in the axial direction. Therefore the images presented here show well defined optical sections in z-axis of the microscope.

Solubility of KAYA1 = type: physicochemical
Description: The Boc protecting group of compound A is cleaved with trifluoro acetic acid (6.7 ml, 87 mmol) in methanol (3 ml, 74 mmol) for 18 hours at room temperature. After evaporation and recrystallization in anisole KAYA1 was characterized by electrospray mass spectrometry: (Mfound 389.1245 m/e, 391.1611 m/e, Mcalc 388.12 m/e, 390.12 m/e); 1H NMR spectroscopy (CD3OD): S=1.39 ppm (m, 4H), 1.59 ppm (m, 2H), 1.64 ppm (m, 2H), 2.80 ppm (t, 2H), 3.24 ppm (t, 2H), 7.03 ppm (d, 1H), 7.08 ppm (d, 1H), 7.42 ppm (d, 1H), 7.65 ppm (d, 1H), 7.92 ppm (s, 1H); UV-Vis spectrophotometry (Absmax: 574 nm and 623 nm) and fluorimetry (Emmax: 660 nm).

[2] = system: cell membranes of fixed cells; assay: In vitro labelling of fixed cells; type: cell-based; details: formaldehyde-fixed cells, 5 μM in 1×PBS, 5 minutes at 37° C.
Description: Staining the cell membranes of fixed cells is also compatible with KAYA1. For staining, the cells are cultured at the same conditions as described for in vivo labelling. The cells are fixed with HEPEM buffer containing 3.7% formaldehyde, 65 mM PIPES, 30 mM HEPES, 10 mM EGTA, 2 mM MgCl2, pH 6.9 for 15 min. Then the cells are washed twice with 1×PBS for 7.5 min. Finally the cell membranes are stained with KAYA1 (5 μM in 1×PBS) for 5 minutes at 37° C., washed with 1×PBS and covered with Vectashield.
as §1

## NCCCCCCNc1ccc(O)c2c1C(=O)c1c(O)ccc(Cl)c1C2=O [KAYA1, 1-(6-amino-hexylamino)-5-chloro-4,8-dihydroxy-anthraquinone]
HeLa cell
  similarity of stained regions with binding regions of WGA: high similarity with the specific binding regions of WGA
[1]
  membrane structures visualized by the dye: visualizes the cytoplasmatic membrane, the nuclear membrane and the membrane of certain organelles such as endoplasmatic reticulum and golgi apparatus
Solubility of KAYA1; methanol
  solubility in methanol: soluble
Solubility of KAYA1; water
  solubility in water: moderately soluble
[2]
  staining of cell membranes of fixed cells: compatible
